Reference: PMC10252594 (Cancers, 2023)

Experiments:
LAPC-4 cells [1] = experiment: LAPC-4 cell viability proliferation and combination index assays (MTS, 6 days); assay type: cell-based; conditions: Homo sapiens, LAPC4, 144 h, LAPC-4, six days of treatment; read-out: IC50, mean of three experiments (Figure 2A)
PC-3 xenograft = system: PC-3 xenograft; parameters: method as in PMID 34681843; conditions: cited from earlier work
LAPC-4 cells [2] = experiment: Apoptosis characterization by flow cytometry (annexin-V/PI); assay type: cell-based, human; conditions: 72 h
Description: This experiment was performed with LAPC-4 cells (3 × 10^5) following the protocol previously reported for PC-3 cells. After the detection of annexin-V and propidium iodide fluorescence, dual parametric dot plots allowed us to calculate the percentage of each cell type: (1) non-apoptotic live cells (annexin-V-negative/PI-negative) in the lower left quadrant; (2) early apoptotic cells (annexin-V-positive/PI-negative) in the lower right quadrant; (3) late apoptotic cells (annexin-V-positive/PI-positive) in the upper right quadrant; and (4) necrotic cells (annexin-V-negative/PI-positive) in the upper left quadrant.

[3] = Toxicity during LAPC-4 xenograft protocol (signs, body weight, histopathology); assay type: in vivo, mice; conditions: 28 days
Source text: Tissue samples from xenograft experiments were fixed in neutral buffered 10% formalin and processed for routine paraffin embedding. Tissue sections (3 µm) were stained with hematoxylin and eosin (HE) and histologically observed by an independent pathologist. Digital images at 20× magnification of each slide were obtained using the slide scanner NanoZoomer 2.0-HT (Hamamatsu, Bridgewater, NJ, USA). Whole-section images were visualized using the software NDP View (Hamamatsu, Bridgewater, NJ, USA).

C#C[C@]1(O)CC[C@H]2[C@@H]3CCc4cc(OC)c(N5CCN(C(=O)[C@@H]6CCCN6C(=O)c6ccc7ccccc7n6)CC5)cc4[C@H]3CC[C@@]21C [RM-581]
IC50 (LAPC-4 cells [1]): 430 ± 130 nM | effective oral dose for tumor regression (PC-3 xenograft; PC-3 xenograft, PO): 60 mg/kg | FA and cholesterol in tumors (PC-3 xenograft; tumors from PC-3 xenografts): significant decrease | early and late apoptotic cells (LAPC-4 cells [2]; 2 to 50 µM): significant and increasing proportion | necrotic cells (LAPC-4 cells [2]; 30 and 50 µM): very low and non-significant | viable cells (LAPC-4 cells [2]; 30 and 50 µM, dropped from 92%): 20% | signs of toxicity during xenograft protocol ([3]; nude mice, 3, 10, 30 mg/kg PO): no signs of apparent toxicity | body weight of treated vs untreated mice ([3]; nude mice): no significant difference | histology of liver, kidney and prostate (HE) ([3]; nude mice): tissue morphology was not affected
